Test results from US20130178413A1, “HCV NS3 PROTEASE INHIBITORS” (priority 2010, published 2013).
Read-outs that look alike come from different tables or passages of the source.

Experiments:
[1] = biological target: NS3/4A protease gt 1b A156V (Hepatitis C virus genotype 1b, UniProt P26663, A1182V); experiment: HCV NS3 protease time-resolved fluorescence (TRF) assay, NS3/4A inhibitory activity (Ki), gt 1b A156V mutant; format: biochemical, hepatitis C virus (HCV)
Experimental: (§1) The HCV NS3 protease inhibitory activity of the present compounds may be tested using assays known in the art. One such assay is HCV NS3 protease time-resolved fluorescence (TRF) assay as described below and in International Patent Application Publication WO2006/102087. Other examples of such assays are described in e.g., International Patent Application Publication WO2005/046712. HCV NS3 protease inhibitors, such as those described herein have a Ki less than 50 μM, such as less than 10 μM, and less than 100 nM. Ki is determined by an NS3 protease assay. The assay is performed in a final volume of 100 μl in assay buffer containing 50 mM HEPES, pH 7.5, 150 mM NaCl, 15% glycerol, 0.15% TRITON X-100, 10 mM DTT, and 0.1% PEG 8000. NS3 protease is pre-incubated with various concentrations of inhibitors in DMSO for 30 minutes. The reaction is initiated by adding the TRF peptide substrate (final concentration 100 nM). NS3 mediated hydrolysis of the substrate is quenched after 1 hour at room temperature with 100 μl of 500 mM MES, pH 5.5. Product fluorescence is detected using either a VICTOR V2 or FUSION fluorophotometer (Perkin Elmer Life and Analytical Sciences) with excitation at 340 nm and emission at 615 nm with a 400 μs delay. Testing concentrations of different enzyme forms are selected to result in a signal to background ratio (S/B) of 10-30. IC50 values are derived using a standard four-parameter fit to the data. Ki values are derived from IC50 values using the following formula,
(§2) IC50=Ki(1+[S]/KM), Eqn (1),
(§3) where [S] is the concentration of substrate peptide in the reaction and KM is the Michaelis constant. See P. Gallinari et al., 38 BIOCHEM. 5620-32 (1999); P. Gallinari et al., 72 J. VIROL. 6758-69 (1998); M. Taliani et al., 240 ANAL. BIOCHEM. 60-67 (1996).
(§4) One such assay is HCV NS3 protease time-resolved fluorescence (TRF) assay as described below and in Mao et al., Anal Biochem. 373:1-8, 2008 and International Patent Application Publication WO 2006/102087. A NS3 protease assay can be performed, for example, in a final volume of 100 μl assay buffer containing 50 mM HEPES, pH 7.5, 150 mM NaCl, 15% glycerol, 0.15% TRITON X-100, 10 mM DTT, and 0.1% PEG 8000. NS3 and NS4A protease is pre-incubated with various concentrations of inhibitors in DMSO for 30 minutes. The reaction is initiated by adding the TRF peptide substrate (final concentration 100 nM). NS3 mediated hydrolysis of the substrate is quenched after 1 hour at room temperature with 100 μl of 500 mM MES, pH 5.5. Product fluorescence is detected using either a VICTOR V2 or FUSION fluorophotometer (Perkin Elmer Life and Analytical Sciences) with excitation at 340 nm and emission at 615 nm with a 400 μs delay. Testing concentrations of different enzyme forms are selected to result in a signal to background ratio (S/B) of 10-30. IC50 values are derived using a standard four-parameter fit to the data. Ki values are derived from IC50 values using the following formula,
as §3, with “(1996); Mao et al., Analytical Biochemistry 373: 1-8, 2008. Measuring Compound Inhibitory Potency (Replicon EC50 (nM))” for “(1996).”

NS3/4A protease gt 3a = NS3/4A protease gt 3a (Hepatitis C virus genotype 3a, UniProt Q81258); experiment: HCV NS3 protease time-resolved fluorescence (TRF) assay, NS3/4A inhibitory activity (Ki), gt 3a; format: biochemical; details: genotype 3a NS3/4A; read-out: Enzyme Activity gt 3a Ki
Experimental: as §1, §2, §3, §4
as §3, with “(1996); Mao et al., Analytical Biochemistry 373: 1-8, 2008. Measuring Compound Inhibitory Potency (Replicon EC50 (nM))” for “(1996).”

gt 1b Replicon = experiment: HCV replicon assay, compound inhibitory potency (Replicon EC50); format: cell-based; details: Hepatitis C virus, GT1B
Experimental: Measurement of inhibition by compounds was performed using the HCV replicon system. Several different replicons encoding different HCV genotypes or mutations were used. In addition, potency measurements were made using different formats of the replicon assay, including different ways of measurements and different plating formats. See Jan M. Vrolijk et al., A replicons-based bioassay for the measurement of interferons in patients with chronic hepatitis C, 110 J. VIROLOGICAL METHODS 201 (2003); Steven S. Carroll et al., Inhibition of Hepatitis C Virus RNA Replication by 2′-Modified Nucleoside Analogs, 278(14) J. BIOLOGICAL CHEMISTRY 11979 (2003). However, the underlying principles are common to all of these determinations, and are outlined below.
Stable neomycin phosphotransferase encoding replicon-harboring cell lines were used, so all cell lines were maintained under G418 selection prior to the assay. In some cases the cell lines encoded a luciferase:Neor fusion and could be assayed either directly by determination of RNA copy number, or indirectly through measurement of the luciferase activity.
To initiate an assay, replicon cells were plated in the presence of a dilution series of test compound in the absence of G418. Typically, the assays were performed in a 96-well plate format for manual operation, or a 384 well plate in an automated assay. Replicon cells and compound were incubated for 24-48 hours, depending on the assay. At the end of the assay, cells are washed free of media and compound and then lysed. For direct quantitation, RNA levels were measured by ^32P-probe hybridization and protection, or in a TAQMAN based assay and normalized to cellular cyclophilin A RNA levels. In some cases, luciferase activity was measured using a conventional luciferase assay. In all cases EC50 determinations were calculated as a percent of a DMSO control by fitting the data to a four parameter fit function.

NS3/4A protease gt 1b = NS3/4A protease gt 1b (Hepatitis C virus genotype 1b, UniProt P26663); experiment: HCV NS3 protease time-resolved fluorescence (TRF) assay, NS3/4A inhibitory activity (Ki), gt 1b; format: biochemical; details: genotype 1b NS3/4A; read-out: Enzyme Activity gt 1b Ki
Experimental: as §1, §2, §3, §4
as §3, with “(1996); Mao et al., Analytical Biochemistry 373: 1-8, 2008. Measuring Compound Inhibitory Potency (Replicon EC50 (nM))” for “(1996).”

[2] = 10% Fetal Bovine Serum, read-out: gt 1b Replicon EC50 10% FBS
[3] = 50% Normal Human Serum, read-out: gt 1b Replicon EC50 50% NHS

Compound: C=C[C@@H]1C[C@]1(NC(=O)[C@@H]1C[C@@H]2CN1C(=O)[C@H](C1CCCC1)NC(=O)O[C@]1(C)CCC[C@H]1CCCCCc1nc3ccc(OC)cc3cc1O2)C(=O)NS(=O)(=O)C1CC1 [Example I-3, (1R,18R,22R,26S,29S)-26-Cyclopentyl-N-((1R,2S)-1-{[(cyclopropylsulfonyl)amino]carbonyl}-2-vinylcyclopropyl)-7-methoxy-22-methyl-24,27-dioxo-2,23-dioxa-11,25,28-triazapentacyclo[26.2.1.0^3,12.0^5,10.0^18,22]hentriaconta-3(12),4,5,7,9,10-hexaene-29-carboxamide]
- Ki [1]: 3.3 nM
- Ki (NS3/4A protease gt 3a): 0.5 nM
- EC50 (gt 1b Replicon; [2]): 6 nM
- EC50 (gt 1b Replicon; [3]): 23 nM
- Ki (NS3/4A protease gt 1b): 0.03 nM

Compound: C=C[C@@H]1C[C@]1(NC(=O)[C@@H]1C[C@@H]2CN1C(=O)[C@H](C(C)(C)C)NC(=O)O[C@]1(C)C[C@H]1CCCCCc1cccc3c1CN(C3)C(=O)O2)C(=O)NS(=O)(=O)C1CC1 [Example I-6, (1aR,5S,8S,10R,23aR)-5-tert-butyl-N-{(1R,2S)-1-[(cyclopropylsulfonyl)carbamoyl]-2-ethenylcyclopropyl}-1a-methyl-3,6,12-trioxo-1a,3,4,5,6,9,10, 14,19,20,21,22,23,23a-tetradecahydro-1H,8H-7,10:13,15-dimethano cyclopropa [n][4,13,2,8,11] benzodioxatriaza cyclodocosine-8(12H)-carboxamide]
- Ki [1]: 0.3 nM
- Ki (NS3/4A protease gt 3a): 2.9 nM
- EC50 (gt 1b Replicon; [2]): 3 nM
- EC50 (gt 1b Replicon; [3]): 54 nM
- Ki (NS3/4A protease gt 1b): 0.02 nM

Compound: C=C[C@@H]1C[C@]1(NC(=O)[C@@H]1C[C@@H]2CN1C(=O)[C@H](C1CCCC1)NC(=O)O[C@]1(C)C[C@H]1CCCCCc1nc3cccc(OC)c3nc1O2)C(=O)NS(=O)(=O)C1CC1 [Example I-30, (1aR,5S,8S,10R,22aR)-5-cyclopentyl-N-{(1R,2S)-1-[(cyclopropylsulfonyl)carbamoyl]-2-ethenylcyclopropyl}-13-methoxy-1a-methyl-3,6-dioxo-1,1a,3,4,5,6,9,10,18,19,20,21,22,22a-tetradecahydro-8H-7,10-methanocyclo propa[18,19][1,10,3,6] dioxadiazacyclonona decino[11,12-b]quinoxaline-8-carboxamide]
- Ki [1]: 1.9 nM
- Ki (NS3/4A protease gt 3a): 2.2 nM
- EC50 (gt 1b Replicon; [2]): 1 nM
- EC50 (gt 1b Replicon; [3]): 5 nM
- Ki (NS3/4A protease gt 1b): 0.02 nM

Compound: C=C[C@@H]1C[C@]1(NC(=O)[C@@H]1C[C@@H]2CN1C(=O)[C@H](C1CCCC1)NC(=O)O[C@]1(C)C[C@H]1CCCCCc1cccc3c1CN(C3)C(=O)O2)C(=O)NS(=O)(=O)C1CC1 [Example I-13, (1aR,5S,8S,10R,23aR)-5-cyclopentyl-N-{(1R,2S)-1-[(cyclopropylsulfonyl)carbamoyl]-2-ethenylcyclopropyl}-1a-methyl-3,6,12-trioxo-1a,3,4,5,6,9,10, 14,19,20,21,22,23,23a-tetradecahydro-1H,8H-7,10:13,15-dimethano cyclopropa[n][4,13,2,8, 11]benzodioxatriaza cyclodocosine-8(12H)-carboxamide]
- Ki [1]: 0.4 nM
- Ki (NS3/4A protease gt 3a): 32.9 nM
- EC50 (gt 1b Replicon; [2]): 4 nM
- EC50 (gt 1b Replicon; [3]): 16 nM
- Ki (NS3/4A protease gt 1b): 0.02 nM

Compound: CC[C@@H]1C[C@]1(NC(=O)[C@@H]1C[C@@H]2CN1C(=O)[C@H](C1CCCC1)NC(=O)O[C@]1(C)CCC[C@H]1CCCCCc1c(nc3ccccc3c1O)O2)C(=O)NS(=O)(=O)C1CC1 [Example I-18, (3aR,7S,10S,12R,24aR)-7-cyclopentyl-N-{(1R,2R)-1-[(cyclopropylsulfonyl)carbamoyl]-2-ethylcyclopropyl}-19-hydroxy-3a-methyl-5,8-dioxo-1,2,3,3a,5,6,7,8,11,12,20,21,22,23,24, 24a-hexadecahydro-10H-9,12-methano cyclopenta[18,19][1,10,3,6]dioxadiazacyclo nonadecino[11,12-b]quinoline-10-carboxamide]
- Ki [1]: 42.5 nM
- Ki (NS3/4A protease gt 3a): 9.2 nM
- EC50 (gt 1b Replicon; [2]): 30 nM
- EC50 (gt 1b Replicon; [3]): 35 nM
- Ki (NS3/4A protease gt 1b): 0.07 nM

Compound: C=C[C@@H]1C[C@]1(NC(=O)[C@@H]1C[C@@H]2CN1C(=O)[C@H](C1CCCC1)NC(=O)O[C@]1(C)C[C@H]1CC/C=C/Cn1c(nc3cc(C)ccc3c1=O)O2)C(=O)NS(=O)(=O)C1(C)CC1 [Example I-24, (1aR,5S,8S,10R,20E,23aR)-5-cyclopentyl-N-[(1R,2S)-2-ethenyl-1-{[(1-methylcyclopropyl)sulfonyl]carbamoyl}cyclopropyl]-1a,14-dimethyl-3,6,17-trioxo-1,1a,3,4,5,6,9,10,19,22,23,23a-dodecahydro-8H,17H-7,10-methanocyclo propa[18,19][1,10,3,6,12] dioxatriazacyclo nonadecino[11,12-b]quinazoline-8-carboxamide]
- Ki [1]: 0.9 nM
- Ki (NS3/4A protease gt 3a): 0.7 nM
- EC50 (gt 1b Replicon; [2]): 2 nM
- EC50 (gt 1b Replicon; [3]): 8.5 nM
- Ki (NS3/4A protease gt 1b): 0.02 nM

Compound: CC[C@@H]1C[C@]1(NC(=O)[C@@H]1C[C@@H]2CN1C(=O)[C@H](C(C)(C)C)NC(=O)O[C@]1(C)C[C@H]1CCCCCc1cccc3c1CN(C3)C(=O)O2)C(=O)NS(=O)(=O)C1CC1 [Example I-7, (1aR,5S,8S,10R,23aR)-5-tert-butyl-N-{(1R,2R)-1-[(cyclopropylsulfonyl)carbamoyl]-2-ethylcyclopropyl}-1a-methyl-3,6,12-trioxo-1a,3,4,5,6,9,10,14,19, 20,21,22,23,23a-tetradecahydro-1H,8H-7,10:13,15-dimethano cyclopropa[n][4,13,2,8, 11]benzodioxatriaza cyclodocosine-8(12H)-carboxamide]
- Ki [1]: 2.2 nM
- Ki (NS3/4A protease gt 3a): 8.7 nM
- EC50 (gt 1b Replicon; [2]): 4 nM
- EC50 (gt 1b Replicon; [3]): 27 nM
- Ki (NS3/4A protease gt 1b): 0.02 nM
